Measured values taken from article PMC9131373 (Drug testing and analysis, 2021).
Values joined by “and” are separate entries in the source; they are usually repeats but may differ in a detail not shown here. Identical values can stand only once. Like-named read-outs stand apart in the source and are kept apart here.

Columns and labels:
[1] = cited from earlier work; for Intracellular TFV-DP levels, higher: than levels without boosting
[2] = TFV and FTC concentrations in participant hair samples by LC/MS/MS; format: in vivo, human; conditions: for Difference of average hair concentration, TAF versus TDF: those on TAF relative to those on TDF
[3] = cited from earlier work
[4] = Stability of TFV and FTC in stock solutions, processed samples and hair; format: physicochemical; conditions: for Stability in processed samples: a week in a refrigerator at 4°C; for Time stable in hair samples: room temperature, deviation less than ±15%
[5] = MSM on TAF/FTC/COBI/EVG versus TDF/FTC; cited from earlier work
[6] = TDF/FTC to HIV-noninfected volunteers, directly-observed, 7 days a week; cited from earlier work
[7] = cited from earlier work; remark: listed apart in the source
[8] = Plasma pharmacokinetics of TFV after TDF or TAF; format: in vivo, human; conditions: from ref 75 and ref 76
[9] = 6 participants on TAF/FTC-based ART
[10] = 10 participants on TDF/FTC-based ART
[11] = TAF-based ART, with booster (COBI or RTV)
[12] = TDF-based ART, not receiving boosters
[13] = TDF-based ART, receiving boosters (COBI or RTV)
[14] = average of original and repeated, one line per patient
[15] = both TDF- and TAF-containing ART, not on booster drugs
[16] = both TDF- and TAF-containing ART, on concomitant boosters (COBI or RTV)
[17] = 200 μg/ml in 50% MeOH, at least 6 h at room temperature
[18] = TAF-based versus TDF-based regimen with darunavir/COBI/FTC
[19] = plasma, TAF (8 mg) compared with TDF (300 mg)
[20] = plasma, TAF (25 mg) compared with TDF (300 mg)
[21] = plasma, from TAF with darunavir/COBI/FTC
[22] = plasma, from TDF with darunavir/COBI/FTC

## CC(Cn1cnc2c(N)ncnc21)OCP(=O)(O)OP(=O)(O)OP(=O)(O)O (stereo in doubt) [TFV-DP, tenofovir diphosphate]
[1]; EVG/COBI/TAF/FTC
  Intracellular TFV-DP levels, higher: 5.3 fold
[1]; TAF 8 mg versus TDF
  AUC of TFV-DP in PBMCs, higher than on TDF: 16.7%
[1]; TAF 25 mg versus TDF
  AUC of TFV-DP in PBMCs, higher than on TDF: 613%
[1]; darunavir/COBI/TAF/FTC
  Intracellular TFV-DP levels, higher: 652%

## Nc1nc(=O)n([C@@H]2CS[C@H](CO)O2)cc1F [FTC, emtricitabine]
[2]; [9]
  Average hair concentration: 1.04 ± 0.83 ng/mg hair and 1.04 ng/mg hair
[2]; [10]
  Average hair concentration: 0.846 ± 0.659 ng/mg hair and 0.846 ng/mg hair
[2]; [11]
  Hair concentration: 0.705 ± 0.233 ng/mg hair
[2]; TAF-based ART, without booster
  Hair concentration: 1.37 ± 1.16 ng/mg hair
[2]; [12]
  Hair concentration: 0.428 ± 0.343 ng/mg hair
[2]; TDF-based ART, receiving COBI
  Hair concentration: 1.26 ± 0.59 ng/mg hair
[2]; TDF-based ART, receiving RTV
  Hair concentration: 0.851 ± 0.807 ng/mg hair
[2]; [13]
  Hair concentration: 1.03 ± 0.70 ng/mg hair
[2]; [14]
  FTC normalized average concentration, Average concentration: 0.988 ng/mg hair and 2.76 ng/mg hair and 1.05 ng/mg hair and 0.412 ng/mg hair and 1.86 ng/mg hair and 0.146 ng/mg hair and 0.840 ng/mg hair and 0.348 ng/mg hair and 0.694 ng/mg hair and 0.502 ng/mg hair
[2]; [15]
  Hair concentration: 0.898 ± 0.925 ng/mg hair
[2]; [16]
  Hair concentration: 0.930 ± 0.601 ng/mg hair
[2]
  Difference of average hair concentration, TAF versus TDF: 22.9%
[3]
  acidic pKa: 13.83
  basic pKa: 2.4
[4]; [17]
  Stock solution stability: > 95.0%
[4]
  Stability in processed samples: > 95.0%
  Time stable in hair samples: at least 18 months
[4]; at least 1 year at 4°C
  Stock solution stability: > 95.0%
[5]
  Median urine FTC concentrations between regimens: not different

## Nc1[15n][13c](=O)[15n]([C@@H]2CS[C@H](CO)O2)cc1F [FTC-^13C,^15N2, emtricitabine-^13C,^15N2]
[4]; [17]
  Stock solution stability: > 95.0%

## C[C@H](Cn1cnc2c(N)ncnc21)OCP(=O)(O)O [TFV, Tenofovir]
[2]; [9]
  Average hair concentration: 0.0379 ± 0.0139 ng/mg hair and 0.0379 ng/mg hair
[2]; [10]
  Average hair concentration: 0.0553 ± 0.0318 ng/mg hair and 0.0553 ng/mg hair
[2]; [11]
  Hair concentration: 0.0389 ± 0.0117 ng/mg hair
[2]; TAF-based ART, without booster
  Hair concentration: 0.0370 ± 0.0185 ng/mg hair
[2]; [12]
  Hair concentration: 0.0483 ± 0.0327 ng/mg hair
[2]; TDF-based ART, receiving COBI
  Hair concentration: 0.0844 ± 0.0357 ng/mg hair
[2]; TDF-based ART, receiving RTV
  Hair concentration: 0.0388 ± 0.0146 ng/mg hair
[2]; [13]
  Hair concentration: 0.0584 ± 0.0336 ng/mg hair
[2]; [14]
  TFV normalized average concentration, Average concentration: 0.0500 ng/mg hair and 0.0698 ng/mg hair and 0.0375 ng/mg hair and 0.0186 ng/mg hair and 0.0973 ng/mg hair and 0.0289 ng/mg hair and 0.0850 ng/mg hair and 0.0304 ng/mg hair and 0.0274 ng/mg hair and 0.0468 ng/mg hair
[2]; [15]
  Hair concentration: 0.0426 ± 0.0246 ng/mg hair
[2]; [16]
  Hair concentration: 0.0525 ± 0.0295 ng/mg hair
[2]
  Difference of average hair concentration, TAF versus TDF: −31.5%
[3]
  acidic pKa: 1.61
[6]
  median TFV hair concentration: 0.038 ng/mg hair
[7]; 25 mg TAF compared with 300 mg TDF
  plasma Cmax, lower: 17 times
[7]; EVG/COBI/TAF/FTC compared to EVG/COBI/TDF/FTC
  plasma exposure of TFV, lower: 91%
[7]; TAF versus TDF
  TFV concentrations in the plasma with TAF lower than with TDF: 4 fold
[7]; TAF-based compared with TDF-based treatment
  TFV exposure in plasma, decrease: approximately 90%
[7]; [18]
  AUC of TFV, decrease: 90.9%
  Cmax of TFV, decrease: 95.5%
[7]; [19]
  AUC of TFV, decrease: 96.6%
  Cmax of TFV, decrease: 98.3%
[7]; [20]
  AUC of TFV, decrease: 86.0%
  Cmax of TFV, decrease: 93.6%
[7]; [21]
  AUC of TFV: 339 ng·h/mL
  Cmax of TFV: 18.8 ng/mL
[7]; [22]
  AUC of TFV: 3737 ng·h/mL
  Cmax of TFV: 413 ng/mL
[4]; [17]
  Stock solution stability: > 95.0%
[4]
  Stability in processed samples: > 95.0%
  Time stable in hair samples: at least 18 months
[4]; at least 1 year at 4°C
  Stock solution stability: > 95.0%
[1]; after switching from EVG/COBI/TDF/FTC to EVG/COBI/TAF/FTC
  intracellular TFV concentration, increase: 141%
[8]; TAF co-administrated with darunavir/COBI
  plasma AUC of TFV, boosted versus non-boosted, higher: approximately 5 times
[8]; TDF co-administrated with darunavir/COBI
  plasma AUC of TFV, boosted versus non-boosted, higher: 1.95 times
[5]
  Median urine TFV concentrations, lower on TAF-based regimen than on TDF: approximately 14 times

## CC(Cn1cnc2c(N)ncnc21)OCP(=O)(O)O (stereo not shown) [TFV-d6, Tenofovir-d6]
[4]; [17]
  Stock solution stability: > 95.0%
